Experiment [1] deals with T1, Protein mono-ADP-ribosyltransferase PARP3 (Homo sapiens, UniProt Q9Y6F1).
T1 sequence (Q9Y6F1 whole entry): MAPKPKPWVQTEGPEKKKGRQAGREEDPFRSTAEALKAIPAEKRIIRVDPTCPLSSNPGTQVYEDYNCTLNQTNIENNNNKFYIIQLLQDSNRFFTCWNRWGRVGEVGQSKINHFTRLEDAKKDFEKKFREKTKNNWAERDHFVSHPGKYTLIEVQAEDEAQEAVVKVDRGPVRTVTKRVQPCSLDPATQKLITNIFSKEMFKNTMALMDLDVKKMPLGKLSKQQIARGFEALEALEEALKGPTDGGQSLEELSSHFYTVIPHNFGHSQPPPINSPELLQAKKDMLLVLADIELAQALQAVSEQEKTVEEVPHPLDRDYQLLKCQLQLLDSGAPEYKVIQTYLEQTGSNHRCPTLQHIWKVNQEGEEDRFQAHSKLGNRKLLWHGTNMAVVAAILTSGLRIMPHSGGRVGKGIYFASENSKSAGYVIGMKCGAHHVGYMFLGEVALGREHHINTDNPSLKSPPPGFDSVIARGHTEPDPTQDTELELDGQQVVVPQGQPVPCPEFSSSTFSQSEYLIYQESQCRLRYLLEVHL
Put plainly: Inhibition of PARP3 (unknown origin).

Experiment [2] deals with Poly [ADP-ribose] polymerase 1 (Homo sapiens, UniProt P09874). Put plainly: Inhibition of PARP1 (unknown origin).

SMILES strings stand for the structures.

Chain of Poly [ADP-ribose] polymerase 1 (P09874 whole entry): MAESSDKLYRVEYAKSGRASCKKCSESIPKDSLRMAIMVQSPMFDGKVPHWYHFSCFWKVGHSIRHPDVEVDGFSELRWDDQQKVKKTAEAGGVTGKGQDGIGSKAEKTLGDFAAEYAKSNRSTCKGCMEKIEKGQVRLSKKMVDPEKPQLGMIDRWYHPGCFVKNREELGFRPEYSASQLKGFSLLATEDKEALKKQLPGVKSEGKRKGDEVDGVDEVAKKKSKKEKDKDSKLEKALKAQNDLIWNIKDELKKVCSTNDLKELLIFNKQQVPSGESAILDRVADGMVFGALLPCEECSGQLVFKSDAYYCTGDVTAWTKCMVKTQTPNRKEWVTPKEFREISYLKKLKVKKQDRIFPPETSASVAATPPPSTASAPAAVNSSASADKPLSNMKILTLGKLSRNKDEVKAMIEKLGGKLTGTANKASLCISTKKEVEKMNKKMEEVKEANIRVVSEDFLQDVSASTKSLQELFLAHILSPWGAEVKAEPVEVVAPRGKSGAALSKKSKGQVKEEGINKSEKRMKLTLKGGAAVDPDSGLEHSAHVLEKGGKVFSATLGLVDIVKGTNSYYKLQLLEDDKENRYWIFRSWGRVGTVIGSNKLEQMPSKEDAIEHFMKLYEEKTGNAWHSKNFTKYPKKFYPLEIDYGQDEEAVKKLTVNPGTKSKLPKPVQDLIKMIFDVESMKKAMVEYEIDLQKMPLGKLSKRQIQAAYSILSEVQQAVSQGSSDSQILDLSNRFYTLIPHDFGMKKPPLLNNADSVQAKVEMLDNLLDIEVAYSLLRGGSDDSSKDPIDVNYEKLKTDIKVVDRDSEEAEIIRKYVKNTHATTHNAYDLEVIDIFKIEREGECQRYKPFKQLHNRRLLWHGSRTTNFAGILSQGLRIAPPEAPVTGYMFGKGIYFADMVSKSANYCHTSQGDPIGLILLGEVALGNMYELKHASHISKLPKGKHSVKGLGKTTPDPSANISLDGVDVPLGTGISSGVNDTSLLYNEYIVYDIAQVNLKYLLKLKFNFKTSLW

As a reminder, the IC50 is the concentration that inhibits the measured activity by half. Read a low IC50 as inhibition by little substance. For the compound `O=C(CCc1nc2ccccc2c(=O)[nH]1)Nc1ccc(C(=O)Nc2cccc3cccnc23)cc1`, half-maximal inhibition in experiment [1] (IC50) required 40 µM.

Take `Cc1cccc2c(=O)[nH]c(CCC(=O)Nc3ccc(C(=O)Nc4cccc5cccnc45)cc3)nc12`: the figures for the concentration for half-maximal inhibition (IC50) in experiment [1] and in experiment [2] were 45 µM and 6.5 µM, respectively.

The record behind these values is ChEMBL document CHEMBL4002591 (J Med Chem, 2017).
